Experimental data from ChEMBL document CHEMBL1201862, “PubChem BioAssay data set” (2004).
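1) Cells in 96-well plates. 2) Compound, 48 h, 5 concentrations. 3) Linear interpolation between surrounding doses. 4) Unreached endpoint = highest concentration. At the GI50, growth is halved.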 Calls of active or inactive are those of the source. Cut-off read from the data, not from the text of the source: active = GI50 up to about 1.1 µM and inactive = higher.

What was measured:
Assay in all cases: NCI tumour cell line growth inhibition, 48 h
786-0 = test system: 786-0
ACHN = test system: ACHN
DU-145 = test system: DU-145
HL-60 = test system: HL-60
HOP-62 = test system: HOP-62
KM12 = test system: KM12
M14 = test system: M14
MDA-N = test system: MDA-N
Malme-3M = test system: Malme-3M
NCI/ADR-RES = test system: NCI/ADR-RES
OVCAR-4 = test system: OVCAR-4
OVCAR-5 = test system: OVCAR-5
PC-3 = test system: PC-3
SF-539 = test system: SF-539
SK-MEL-28 = test system: SK-MEL-28
SK-MEL-2 = test system: SK-MEL-2
SK-OV-3 = test system: SK-OV-3
TK-10 = test system: TK-10
U-251 = test system: U-251
UO-31 = test system: UO-31

COC(=O)C12Oc3ccc(-c4ccc5c(c4O)C(O)=C4C(=O)CC(C)C(O)C4(C(=O)OC)O5)c(O)c3C(O)=C1C(=O)CC(C)C2O (stereo not given)
GI50 (786-0): 0.314 µM (active)
GI50 (ACHN): 0.153 µM (active)
GI50 (DU-145): 0.547 µM (active)
GI50 (HL-60): 0.102 µM (active)
GI50 (HOP-62): 0.0644 µM (active)
GI50 (KM12): 0.0555 µM (active)
GI50 (M14): 0.104 µM (active)
GI50 (MDA-N): 0.125 µM (active)
GI50 (Malme-3M): 0.0217 µM (active)
GI50 (NCI/ADR-RES): 0.485 µM (active)
GI50 (OVCAR-4): 0.467 µM (active)
GI50 (OVCAR-5): 0.119 µM (active)
GI50 (PC-3): 0.0764 µM (active)
GI50 (SF-539): 0.055 µM (active)
GI50 (SK-MEL-28): 0.0397 µM (active)
GI50 (SK-MEL-2): 0.0798 µM (active)
GI50 (SK-OV-3): 0.103 µM (active)
GI50 (TK-10): 0.231 µM (active)
GI50 (U-251): 0.0525 µM (active)
GI50 (UO-31): 0.156 µM (active)

O=C(O)CCSC(CC1(c2ccc(Cl)cc2)NC(=O)CCS1)c1ccccc1 (stereo not given)
GI50 (786-0): 6.7 µM (inactive)
GI50 (ACHN): 25.5 µM (inactive)
GI50 (DU-145): > 39.4 µM (inactive)
GI50 (HL-60): 3.44 µM (inactive)
GI50 (HOP-62): 21.2 µM (inactive)
GI50 (KM12): 3.56 µM (inactive)
GI50 (M14): 19.4 µM (inactive)
GI50 (MDA-N): 12.6 µM (inactive)
GI50 (Malme-3M): 22.9 µM (inactive)
GI50 (NCI/ADR-RES): 20.8 µM (inactive)
GI50 (OVCAR-4): 15 µM (inactive)
GI50 (OVCAR-5): 17.9 µM (inactive)
GI50 (PC-3): 18.7 µM (inactive)
GI50 (SF-539): 7.98 µM (inactive)
GI50 (SK-MEL-28): 17.9 µM (inactive)
GI50 (SK-MEL-2): 18.7 µM (inactive)
GI50 (SK-OV-3): 20.5 µM (inactive)
GI50 (TK-10): 18.4 µM (inactive)
GI50 (U-251): 10.4 µM (inactive)
GI50 (UO-31): 20.7 µM (inactive)

COc1ccc(/C=N/c2ccc(-c3nc4ccccc4s3)cc2)cc1OC
GI50 (786-0): 19 µM (inactive)
GI50 (ACHN): 22.5 µM (inactive)
GI50 (DU-145): 38.3 µM (inactive)
GI50 (HL-60): 1.3 µM (inactive)
GI50 (HOP-62): 10.9 µM (inactive)
GI50 (KM12): 26.4 µM (inactive)
GI50 (M14): 35.7 µM (inactive)
GI50 (MDA-N): 30.9 µM (inactive)
GI50 (Malme-3M): 30 µM (inactive)
GI50 (NCI/ADR-RES): 27.5 µM (inactive)
GI50 (OVCAR-4): 34.3 µM (inactive)
GI50 (OVCAR-5): 36.5 µM (inactive)
GI50 (PC-3): 22.6 µM (inactive)
GI50 (SF-539): 34.8 µM (inactive)
GI50 (SK-MEL-28): 38 µM (inactive)
GI50 (SK-MEL-2): 22 µM (inactive)
GI50 (SK-OV-3): 31 µM (inactive)
GI50 (TK-10): 28.6 µM (inactive)
GI50 (U-251): 30.3 µM (inactive)
GI50 (UO-31): 27.5 µM (inactive)

CN1CCN(C2=C(Cl)C(=O)c3c(O)ccc(O)c3C2=O)CC1
GI50 (786-0): 0.244 µM (active)
GI50 (ACHN): 0.286 µM (active)
GI50 (DU-145): 1.78 µM (inactive)
GI50 (HL-60): 0.103 µM (active)
GI50 (HOP-62): 1.92 µM (inactive)
GI50 (KM12): 1.99 µM (inactive)
GI50 (M14): 0.281 µM (active)
GI50 (MDA-N): 0.35 µM (active)
GI50 (Malme-3M): 0.196 µM (active)
GI50 (NCI/ADR-RES): 0.632 µM (active)
GI50 (OVCAR-4): 0.377 µM (active)
GI50 (OVCAR-5): 1.58 µM (inactive)
GI50 (PC-3): 1.73 µM (inactive)
GI50 (SF-539): 0.959 µM (active)
GI50 (SK-MEL-28): 0.995 µM (active)
GI50 (SK-MEL-2): 1.21 µM (inactive)
GI50 (SK-OV-3): 5.62 µM (inactive)
GI50 (TK-10): 0.514 µM (active)
GI50 (U-251): 1.72 µM (inactive)
GI50 (UO-31): 0.646 µM (active)

O=C(Cn1nc(Br)c(Br)c1Br)c1ccccc1
GI50 (786-0): 23.7 µM (inactive)
GI50 (ACHN): 27.3 µM (inactive)
GI50 (DU-145): 38.5 µM (inactive)
GI50 (HL-60): 10.9 µM (inactive)
GI50 (HOP-62): 37.2 µM (inactive)
GI50 (KM12): 33.4 µM (inactive)
GI50 (M14): 26.7 µM (inactive)
GI50 (MDA-N): 32.9 µM (inactive)
GI50 (Malme-3M): 22 µM (inactive)
GI50 (NCI/ADR-RES): 30.1 µM (inactive)
GI50 (OVCAR-4): 36.1 µM (inactive)
GI50 (OVCAR-5): 40.7 µM (inactive)
GI50 (PC-3): 32.7 µM (inactive)
GI50 (SF-539): 18.2 µM (inactive)
GI50 (SK-MEL-28): 37.2 µM (inactive)
GI50 (SK-MEL-2): 20.7 µM (inactive)
GI50 (SK-OV-3): 32.5 µM (inactive)
GI50 (TK-10): 13.7 µM (inactive)
GI50 (U-251): 34 µM (inactive)
GI50 (UO-31): 18.2 µM (inactive)
